Results filed as inconclusive are left out. The source made the active and inactive calls. The rule behind the calls is not given here.
These compounds were tested against Serine/threonine-protein kinase D1 (Homo sapiens) (UniProt Q15139) (assay: protein kinase D1 activity blockers – biochemical, fluorescence polarization, 140K library hits, repeat, confirmation (AID 1286)). Details: PKD1 kinase, at 10 µM, stronger effect = higher value.
Serine/threonine-protein kinase D1 (Homo sapiens), sequence (Q15139 whole entry, looked up): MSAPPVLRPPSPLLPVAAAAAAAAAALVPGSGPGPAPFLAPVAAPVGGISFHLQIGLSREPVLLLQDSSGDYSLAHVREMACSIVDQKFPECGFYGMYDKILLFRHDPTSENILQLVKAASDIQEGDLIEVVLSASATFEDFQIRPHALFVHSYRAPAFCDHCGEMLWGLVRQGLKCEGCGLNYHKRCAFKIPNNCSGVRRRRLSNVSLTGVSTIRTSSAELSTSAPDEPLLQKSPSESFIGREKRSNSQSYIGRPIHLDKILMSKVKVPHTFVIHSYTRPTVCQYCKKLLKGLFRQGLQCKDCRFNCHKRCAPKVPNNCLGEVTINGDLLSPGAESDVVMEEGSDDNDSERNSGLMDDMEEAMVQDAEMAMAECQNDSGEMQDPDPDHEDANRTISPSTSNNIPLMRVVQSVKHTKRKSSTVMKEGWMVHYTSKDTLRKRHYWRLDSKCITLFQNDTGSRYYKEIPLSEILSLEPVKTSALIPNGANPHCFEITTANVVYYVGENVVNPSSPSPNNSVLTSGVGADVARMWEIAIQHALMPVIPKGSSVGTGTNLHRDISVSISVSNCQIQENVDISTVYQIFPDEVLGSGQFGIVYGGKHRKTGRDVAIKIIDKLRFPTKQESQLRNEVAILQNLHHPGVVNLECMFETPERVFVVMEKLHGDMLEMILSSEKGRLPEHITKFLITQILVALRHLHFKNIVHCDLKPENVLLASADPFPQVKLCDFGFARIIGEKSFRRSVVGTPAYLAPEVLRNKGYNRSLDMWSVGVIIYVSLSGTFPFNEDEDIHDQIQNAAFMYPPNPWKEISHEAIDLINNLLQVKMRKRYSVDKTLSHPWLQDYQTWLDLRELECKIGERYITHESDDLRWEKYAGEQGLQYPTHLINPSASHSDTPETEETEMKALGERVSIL

Question: How did the inhibition turn out when `COc1ccc(C2C(C(=O)c3cccs3)=C(O)C(=O)N2c2nncs2)cc1` (stereo unspecified) was run?
Answer: 35.1% (inactive)

Question: For `Clc1cncc(Cl)c1N/N=C/c1ccncc1`, which inhibition is on record?
Answer: 77.4%

Question: `Cn1c(=O)oc2cc(S(=O)(=O)N3CCN(Cc4ccc5c(c4)OCO5)CC3)ccc21` was tested. Which inhibition did it give?
Answer: -1.91% (inactive)

Question: For `O=C1CCCc2c1cc(C(=O)NCc1ccco1)c(=O)n2-c1ccccc1`, which inhibition is on record?
Answer: -5.46% (inactive)

Question: For `O=C1CC(N2CCN(c3ccccc3Cl)CC2)C(=O)N1c1cccc(F)c1` (stereo unspecified), which inhibition is on record?
Answer: -6.73% (inactive)

Question: `Cc1ccc(C(=O)NNC2=Nc3cccc4cccc2c34)cc1` was tested. Which inhibition did it give?
Answer: 6.45% (inactive)

Question: How did the inhibition turn out when `CS(=O)(=O)N1CCN(c2ccc(NC(=O)c3ccc(Br)o3)cc2)CC1` was run?
Answer: -7.85% (inactive)

Question: For `C=CCn1c(SC(C)C(=O)NCc2ccc3c(c2)OCO3)nnc1C1CCCCC1` (stereo unspecified), which inhibition is on record?
Answer: -1.58% (inactive)

Question: How did the inhibition turn out when `CCn1c(CSc2ncccn2)nnc1SCC(=O)N1CCc2ccccc21` was run?
Answer: -1.28% (inactive)

Question: How did the inhibition turn out when `CN1CCN(c2cccc3c2C(=O)c2ccccc2C3=O)CC1` was run?
Answer: 34.4% (inactive)

Question: For `Cc1cc(NCCCN)nc(-c2ccccc2O)n1`, which inhibition is on record?
Answer: 59.5%

Question: `Cc1c(C(=O)NCc2cccnc2)sc2nc(-c3ccc(F)cc3)cn12` was tested. Which inhibition did it give?
Answer: -3.04% (inactive)

Question: How did the inhibition turn out when `Clc1ccc(Nc2ccc(-n3ccnc3)nn2)cc1Cl` was run?
Answer: -1.8% (inactive)

Question: For `CCC(=O)Nc1c2c(nn1-c1ccccc1C)CSC2`, which inhibition is on record?
Answer: 58.1%

Question: With `CC(C)CCN1CN(S(=O)(=O)c2cccs2)c2nc3ccccc3nc21` as the compound, how does the inhibition read?
Answer: -0.214% (inactive)

Question: Which inhibition does the source give for `COC(=O)c1cccc2c1-c1ccccc1/C2=N/O` here?
Answer: 19.8% (inactive)

Question: For `Cc1cc(N=CC2=C(O)CC(C)(C)CC2=O)no1`, which inhibition is on record?
Answer: -1.85% (inactive)

Question: With `O=C1CC(N2CCN(c3ccccc3Cl)CC2)C(=O)N1c1ccc(F)cc1` (stereo unspecified) as the compound, how does the inhibition read?
Answer: -3.22% (inactive)

Question: `COCC(C)n1c(C)cc(C(=O)COC(=O)c2nc3nc(C)cc(C)n3n2)c1C` (stereo unspecified) was tested. Which inhibition did it give?
Answer: -2.8% (inactive)

Question: Which inhibition does the source give for `COc1cc2c(cc1OC)-c1c(OC)c(OC)c(OC)c3ccnc(c13)C2=O` here?
Answer: 10.4% (inactive)

Question: How did the inhibition turn out when `Cc1ccc(NC(=O)CNc2ccc(Cl)cc2F)cc1` was run?
Answer: 0.85% (inactive)

Question: How did the inhibition turn out when `Cc1[nH]nc2c1-c1nc3ccccc3nc1C(C)(C)C2` was run?
Answer: 40% (inactive)

Question: How did the inhibition turn out when `CCCCn1c(=O)[nH]c2nc3cc(N)ccc3nc2c1=O` was run?
Answer: 31.1% (inactive)

Question: For `CC1CCCC(C)N1C(=O)Cn1cc(/C=C2/C(=O)Nc3ccccc32)c2ccccc21` (stereo unspecified), which inhibition is on record?
Answer: 2.88% (inactive)

Question: For `CC(=O)Oc1cc(OC(C)=O)c2c(C)cc(=O)oc2c1`, which inhibition is on record?
Answer: 68.1%

Question: For `O=C(O)C1CCN(c2ncccn2)CC1`, which inhibition is on record?
Answer: -5.12% (inactive)

Question: For `O=C1c2ccccc2-c2onc3ccc(NCc4ccco4)c1c23`, which inhibition is on record?
Answer: 32.1% (inactive)

Question: For `CCOC(=O)N1CCC(N2CCN(S(=O)(=O)CC)CC2)CC1`, which inhibition is on record?
Answer: -3.7% (inactive)

Question: With `COc1ccc(Nc2cc(C)nc(-n3nc(C)cc3C)n2)cc1` as the compound, how does the inhibition read?
Answer: 3.67% (inactive)

Question: `COc1ccc(S(=O)(=O)N2CCC(n3cnc4cc(C(F)(F)F)ccc43)CC2)cc1` was tested. Which inhibition did it give?
Answer: 20.8% (inactive)

Question: How did the inhibition turn out when `Cc1cc(Nc2cccc(F)c2)nc(NCc2ccccc2)n1` was run?
Answer: 1.99% (inactive)

Question: With `NC(N)=NC(=O)c1nc(Cl)c(N)nc1N` as the compound, how does the inhibition read?
Answer: 58.6%

Question: `Cc1ccc(NC(=O)C2CCCN(S(=O)(=O)c3c(C)noc3C)C2)c(C)c1` (stereo unspecified) was tested. Which inhibition did it give?
Answer: -2.05% (inactive)

Question: With `CC(OC(=O)c1ccc(NS(=O)(=O)c2cccs2)cc1)C(=O)N(C)C1CCCCC1` (stereo unspecified) as the compound, how does the inhibition read?
Answer: -4.35% (inactive)

Question: How did the inhibition turn out when `Nc1nc2ccccc2n1/N=C/c1cccnc1` was run?
Answer: 36.4% (inactive)

Question: Which inhibition does the source give for `CN(C)c1ccc(/C=C2\SC(=S)N(Nc3ncc(C(F)(F)F)cc3Cl)C2=O)cc1` here?
Answer: 4.05% (inactive)

Question: With `CC(=O)Nc1ccc2c(c1)c1ccccc1n2C(C)=O` as the compound, how does the inhibition read?
Answer: 14.5% (inactive)

Question: `O=C(Nc1ccccc1)ON=C1c2ccccc2-c2ccccc21` was tested. Which inhibition did it give?
Answer: 17.2% (inactive)

Question: With `O=C1Nc2ccccc2/C1=C/c1cnc[nH]1` as the compound, how does the inhibition read?
Answer: 28.3% (inactive)

Question: For `COc1ccccc1/C=C1\SC(=S)N(CCC(=O)NC2=NCCS2)C1=O`, which inhibition is on record?
Answer: -0.701% (inactive)

Question: For `COC(=O)c1ccccc1OCC(=O)NC1CCCCC1`, which inhibition is on record?
Answer: -3.26% (inactive)

Question: With `O=C(Nc1ccccc1Cl)ON=C1c2ccccc2-c2ccccc21` as the compound, how does the inhibition read?
Answer: 14.4% (inactive)

Question: How did the inhibition turn out when `COc1cc(C2=NOC(C(=O)NCc3ccco3)C2)cc(OC)c1OC` (stereo unspecified) was run?
Answer: -3.78% (inactive)

Question: For `O=C(Nc1ccsc1C(=O)NC1CC1)c1ccccc1`, which inhibition is on record?
Answer: 9.43% (inactive)

Question: Which inhibition does the source give for `CCOC(=O)N1CCC(NS(=O)(=O)c2cc(Br)cc3c2N(C(=O)CC)CC3)CC1` here?
Answer: -5.57% (inactive)

Question: `Nc1nc2ccc([N+](=O)[O-])c(N)c2s1` was tested. Which inhibition did it give?
Answer: 69.9%

Question: How did the inhibition turn out when `Cn1c(=O)c(NCCO)c2c3c(cccc31)C(=O)c1ccccc1-2` was run?
Answer: 95.8%

Question: For `CCC1=NNc2cccc3c(OC)ccc1c23`, which inhibition is on record?
Answer: 89.7%

Question: How did the inhibition turn out when `O=C(c1cc(-c2ccccc2)nc2ccccc12)N1CCN(c2ccccn2)CC1` was run?
Answer: 0.468% (inactive)

Question: For `COc1ccccc1C(=O)NN1C(=O)C2C3C=CC(O3)C2C1=O` (stereo unspecified), which inhibition is on record?
Answer: -0.477% (inactive)

Question: Which inhibition does the source give for `CN(C)CCOc1ccc2c(c1)Sc1ccccc1CC2=O` here?
Answer: 8.37% (inactive)

Question: Which inhibition does the source give for `Nc1nc2ccccc2n1/N=C/c1ccc([N+](=O)[O-])s1` here?
Answer: 34.7% (inactive)

Question: For `CS(=O)(=O)N1CCN(c2ccccc2NC(=O)c2ccc(Br)o2)CC1`, which inhibition is on record?
Answer: 96.2%

Question: Which inhibition does the source give for `Cc1nn(C)c(C)c1N1C(=O)c2cccc3c(N)ccc(c23)C1=O` here?
Answer: 46.3% (inactive)

Question: Which inhibition does the source give for `CN1CCN(c2ccccc2NC(=O)c2ccc(-c3cccc([N+](=O)[O-])c3)o2)CC1` here?
Answer: 7.36% (inactive)

Question: Which inhibition does the source give for `Cc1cc2nc3c(=O)n(C4CCCCC4)c(=O)[nH]c3nc2cc1N` here?
Answer: 21.6% (inactive)

Question: `CCOC(=O)c1cccc(NC(=O)CCS(=O)(=O)c2cccc3nsnc23)c1` was tested. Which inhibition did it give?
Answer: 28.8% (inactive)

Question: `CCOc1cccc(C2C(C(=O)c3ccc(C)o3)=C(O)C(=O)N2c2nccs2)c1` (stereo unspecified) was tested. Which inhibition did it give?
Answer: 73.4%

Question: Which inhibition does the source give for `Cc1c(N/N=C(\C#N)C(=O)c2ccccc2)c(=O)n(-c2ccccc2)n1C` here?
Answer: 12.8% (inactive)

Question: With `NC(=O)c1cn(C2OC(CO)C(O)C2O)c2ncnc(N)c12` (stereo unspecified) as the compound, how does the inhibition read?
Answer: 90.3%

Question: For `CCN(CC)c1ccc(NC(=O)COc2ccccc2C#N)cc1S(=O)(=O)Nc1ccc(OC)cc1`, which inhibition is on record?
Answer: -2.22% (inactive)

Question: With `COc1ccc2nc3sc(C(=O)NCCCN4CCc5ccccc5C4)cc3cc2c1` as the compound, how does the inhibition read?
Answer: 7.3% (inactive)

Question: Which inhibition does the source give for `Cc1c(C(=O)N/N=C/c2ccc(O)c(Br)c2)sc(N)c1C#N` here?
Answer: 44.5% (inactive)

Question: For `O=C(CN1CCCC1)Nc1c2c(nc3ccccc13)N(Cc1ccccc1)CC2`, which inhibition is on record?
Answer: -4.44% (inactive)

Question: For `O=C(Nc1ccc(CN2CCOCC2)cc1)c1ccc(-c2cccc(Cl)c2)o1`, which inhibition is on record?
Answer: 52.6%

Question: For `Cn1c(=O)[nH]c(=O)c2c1nc(NC1CCCCC1)n2CC(=O)NC1CCCCC1`, which inhibition is on record?
Answer: -11.5% (inactive)

Question: Which inhibition does the source give for `CCOC(=O)N1CCN(c2cc(NCCC(=O)O)c3c4c(onc24)-c2ccccc2C3=O)CC1` here?
Answer: 3.06% (inactive)

Question: How did the inhibition turn out when `NC(=NCCc1c[nH]c2ccccc12)NS(=O)(=O)c1cc(F)ccc1F` was run?
Answer: 2.31% (inactive)

Question: For `Nc1nnc(SCCCC(=O)c2ccc(F)cc2)s1`, which inhibition is on record?
Answer: 26.1% (inactive)

Question: How did the inhibition turn out when `Cc1ccc(C(=O)Cn2c(NCCO)nc3ccccc32)cc1` was run?
Answer: -5.32% (inactive)

Question: Which inhibition does the source give for `O=C1NCCCc2c1oc1ccc(O)cc21` here?
Answer: 96.2%

Question: `O=C(NCCOC(=O)c1ccc(C(=O)OCCNC(=O)c2cccnc2)s1)c1cccnc1` was tested. Which inhibition did it give?
Answer: -5.26% (inactive)

Question: Which inhibition does the source give for `O=C(Nc1cccc([N+](=O)[O-])c1)C12CC3CC(C1)CC(n1cnc([N+](=O)[O-])n1)(C3)C2` here?
Answer: -4.73% (inactive)

Question: For `COc1ccc(-c2cnnc(N/N=C/c3ccc(O)c(O)c3)n2)cc1`, which inhibition is on record?
Answer: 3.96% (inactive)

Question: For `O=C(Nc1ccc(Cl)cc1)OCc1cn(-c2ccc(Cl)cc2)nn1`, which inhibition is on record?
Answer: -2.52% (inactive)

Question: `Cc1c(N/N=C(\C#N)C(=O)c2ccc(Cl)cc2)c(=O)n(-c2ccccc2)n1C` was tested. Which inhibition did it give?
Answer: 18% (inactive)

Question: For `CCOC(=O)c1[nH]c2cc(OC)c(OC)cc2c1NC(=O)CN1CCN(C)CC1`, which inhibition is on record?
Answer: 3.12% (inactive)

Question: `c1ccc(-c2n[nH]c3ccccc23)cc1` was tested. Which inhibition did it give?
Answer: 11.3% (inactive)

Question: How did the inhibition turn out when `Cn1c(OCc2cccnc2)nc2c1c(=O)n(Cc1ccc(Br)cc1)c(=O)n2C` was run?
Answer: -0.468% (inactive)

Question: `Cc1occc1C(=O)NC(C)CCc1ccccc1` (stereo unspecified) was tested. Which inhibition did it give?
Answer: -0.529% (inactive)

Question: How did the inhibition turn out when `CCCNC(=O)CN(c1ccc(F)cc1)S(=O)(=O)c1ccc2c(c1)OCCO2` was run?
Answer: -8.66% (inactive)
